From US9695155B2, “Herbicidal substituted pyrimidinyloxy benzene compounds” (E. I. DU PONT DE NEMOURS AND COMPANY, priority 2013, dated 2017)

What was measured:
oilseed rape = test: Test C preemergence; assay type: in vivo, Brassica napus; conditions: Brassica napus, pre-emergence, preemergence, read-out: Oilseed Rape plant response rating
Procedure, shortened: (§1)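 Preemergence: seeds sown in a loam soil–sand blend and sprayed with test chemical in a non-phytotoxic solvent mixture containing surfactant. Postemergence: plants at 2 to 18 cm (1- to 4-leaf stage) in peat-based medium, treated with the same formulation. Greenhouse 13 to 15 days, then visual rating 0 (no effect) to 100 (complete control).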

corn = test: Test C preemergence; assay type: in vivo, Zea mays; conditions: Zea mays, pre-emergence
Procedure, shortened: as §1

johnsongrass = test: Test C postemergence; assay type: in vivo, Sorghum halepense; conditions: Sorghum halepense, post-emergence
Procedure, shortened: as §1

ragweed [1] = test: Test C postemergence; assay type: in vivo, Ambrosia elatior; conditions: Ambrosia artemisiifolia, post-emergence
Procedure, shortened: as §1

galium = test: Test C postemergence; assay type: in vivo, Galium aparine; conditions: Galium, post-emergence
Procedure, shortened: as §1

ragweed [2] = test: Test A preemergence; assay type: in vivo, Ambrosia elatior; conditions: 0 to 100 scale where 0 is no effect and 100 is complete control
Procedure, shortened: (§2)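 Scoring: eye-based comparison with untreated controls, 0 for no effect through 100 for complete control, at about day 10. Treatments: directed soil spray preemergence; foliar spray postemergence on 2–10 cm plants at the one- to two-leaf stage. Medium: loam soil with sand.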

giant foxtail [3] = test: Test C preemergence; assay type: in vivo, Setaria faberii; conditions: Setaria faberi, pre-emergence
Procedure, shortened: as §1

Heteranthera limosa = test: Test B flooded paddy test; assay type: in vivo; conditions: Heteranthera limosa, Flood, 250 g ai/ha; 0 to 100 scale where 0 is no effect and 100 is complete control; read-out: Plant response rating, Ducksalad
Procedure, shortened: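 Plants were grown to the 2-leaf stage, then pots were flooded to 3 cm above the soil and compounds were applied directly into the paddy water. That depth was held throughout, and after 13 to 15 days in the greenhouse injury was rated visually against controls on a 0–100 scale (0 no effect, 100 complete control).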

giant foxtail [4] = test: Test A postemergence; assay type: in vivo, Setaria faberii; conditions: Setaria faberi, post-emergence, 240 h, 0 to 100 scale where 0 is no effect and 100 is complete control
Procedure, shortened: as §2

waterhemp = test: Test C preemergence; assay type: in vivo, Amaranthus rudis; conditions: Amaranthus tuberculatus, pre-emergence, preemergence, read-out: Waterhemp plant response rating
Procedure, shortened: as §1

[5] = 16 g ai/ha, scale 0 to 100 (0 no effect, 100 complete control)
[6] = 62 g ai/ha, scale 0 (no effect) to 100 (complete control)
[7] = 125 g ai/ha, scale 0 (no effect) to 100 (complete control)

## FC(F)(F)COc1cnn(-c2ccccc2Oc2ncc(Cl)cn2)c1 [Compound 138, 5-chloro-2-[2-[4-(2,2,2-trifluoroethoxy)-1H-pyrazol-1-yl]phenoxy]pyrimidine]
Oilseed rape; [5]
  plant injury at 16 g/ha: 80%
Oilseed rape; [6]
  plant injury at 62 g/ha: 100%
Oilseed rape; [7]
  plant injury at 125 g/ha: 100%
corn; 16 g ai/ha, preemergence, scale 0 to 100 (0 no effect, 100 complete control), read-out: Corn plant response rating
  plant injury at 16 g/ha: 0%
corn; 62 g ai/ha, preemergence, scale 0 (no effect) to 100 (complete control), read-out: Corn plant response rating
  plant injury at 62 g/ha: 0%
corn; 125 g ai/ha, preemergence, scale 0 (no effect) to 100 (complete control), read-out: Corn plant response rating
  plant injury at 125 g/ha: 25%
corn; Preemergence, 31 g ai/ha, scale 0 to 100, 0 no effect, 100 complete control
  Corn plant response rating (crop injury, 0 = no effect, 100 = complete kill) at 31 g/ha: 0%
johnsongrass; 16 g ai/ha, postemergence, 0 is no effect, 100 is complete control, read-out: Plant response rating (0 to 100), Johnsongrass
  pest or weed control at 16 g/ha: 5%
johnsongrass; 125 g ai/ha, postemergence, visual rating, scale 0 to 100 (0 no effect, 100 complete control), read-out: Plant response rating, Johnsongrass
  pest or weed control at 125 g/ha: 10%
johnsongrass; Postemergence, 62 g ai/ha, scale 0 to 100 (0 no effect, 100 complete control), read-out: Plant response rating, Johnsongrass
  pest or weed control at 62 g/ha: 5%
Ragweed [1]; 16 g ai/ha, postemergence, 0 is no effect, 100 is complete control, read-out: Plant response rating (0 to 100), Ragweed
  pest or weed control at 16 g/ha: 40%
Ragweed [1]; 125 g ai/ha, postemergence, visual rating, scale 0 to 100 (0 no effect, 100 complete control), read-out: Plant response rating, Ragweed
  pest or weed control at 125 g/ha: 45%
Ragweed [1]; Postemergence, 62 g ai/ha, scale 0 to 100 (0 no effect, 100 complete control), read-out: Plant response rating, Ragweed
  pest or weed control at 62 g/ha: 40%
galium; 16 g ai/ha, postemergence, 0 is no effect, 100 is complete control, read-out: Plant response rating (0 to 100), Galium
  pest or weed control at 16 g/ha: 50%
galium; 125 g ai/ha, postemergence, visual rating, scale 0 to 100 (0 no effect, 100 complete control), read-out: Plant response rating, Galium
  pest or weed control at 125 g/ha: 85%
galium; Postemergence, 62 g ai/ha, scale 0 to 100 (0 no effect, 100 complete control), read-out: Plant response rating, Galium
  pest or weed control at 62 g/ha: 65%
Ragweed [2]; 125 g ai/ha
  Plant response rating, Ragweed: 30
Ragweed [2]; 500 g ai/ha
  Ragweed plant response rating: 60
Giant foxtail [3]; 16 g ai/ha, preemergence, scale 0 to 100 (0 no effect, 100 complete control), read-out: Foxtail, Giant plant response rating
  pest or weed control at 16 g/ha: 30%
Giant foxtail [3]; 62 g ai/ha, preemergence, scale 0 (no effect) to 100 (complete control), read-out: Foxtail, Giant plant response rating
  pest or weed control at 62 g/ha: 100%
Giant foxtail [3]; 125 g ai/ha, preemergence, scale 0 (no effect) to 100 (complete control), read-out: Foxtail, Giant plant response rating
  pest or weed control at 125 g/ha: 100%
Giant foxtail [3]; Preemergence, 31 g ai/ha, scale 0 to 100, 0 no effect, 100 complete control, read-out: Plant response rating, Foxtail, Giant
  pest or weed control at 31 g/ha: 90%
Heteranthera limosa
  pest or weed control at 250 g/ha: 90%
Giant foxtail [4]; 125 g ai/ha, read-out: Foxtail, Giant plant response rating
  pest or weed control at 125 g/ha: 90%
Giant foxtail [4]; 500 g ai/ha, read-out: Plant response rating, Foxtail, Giant
  pest or weed control at 500 g/ha: 100%
waterhemp; [5]
  pest or weed control at 16 g/ha: 100%
waterhemp; [6]
  pest or weed control at 62 g/ha: 100%
waterhemp; [7]
  pest or weed control at 125 g/ha: 100%
